Measurements reported in patent US20050203156A1, “Hydantoins having RNase modulatory activity” (Wyeth, priority 2004, published 2005).

Assays:
[1] = target: T1, HIV reverse transcriptase (RDDP polymerase activity) (Human immunodeficiency virus type 1 group M subtype B, UniProt P04585); assay: RNA dependent DNA polymerase (RDDP) activity of HIV RT, polyrA-oligodT12-18 / 33P TTP incorporation; format: biochemical
T1 construct: HIV Reverse transcriptase (RT) 66/p51; purchased Worthington

[2] = target: T2, HIV reverse transcriptase (RNase H activity) (Human immunodeficiency virus type 1 group M subtype B, UniProt P04585); assay: Inhibition of RNase H / HIV reverse transcriptase (fluorescent probe-target hybrid assay); format: biochemical; details: Table I
T2 construct: HIV reverse transcriptase has an RNase H domain at the C-terminus of its p66 subunit
Description: RNase H is an enzyme responsible for the removal of RNA primers from leading and lagging strands during DNA synthesis. It is an important enzyme for the replication of bacterial, viral and human genomes. HIV reverse transcriptase has an RNase H domain at the C-terminus of its p66 subunit. […] The ability of the compounds of the present invention to inhibit RNase H, and more particularly HIV reverse transcriptase, may be measured or determined by any means known in the art.
Preferably, the RNase H/HIV reverse transcriptase modulatory activity of the compounds of the present invention may be determined by the methods described in a copending U.S. provisional patent Application No. 60/436,125, filed Dec. 19, 2002 and PCT Publication No. WO 2004/059012, filed Dec. 22, 2003, published Jul. 15, 2004, entitled ASSAY FOR RNase ACTIVITY of Olson et al., incorporated herein by reference in their entirety. Specifically, the modulatory activity of a hydantoin derivative of the present invention may be determined by hybridizing a target nucleic acid to a fluorescently labeled oligonucleotide probe complementary to the target nucleic acid and containing a fluorophor at one terminus and a quenching group at the other terminus to obtain a probe-target hybrid, wherein (i) the unhybridized probe adopts a conformation that places the fluorophor and quencher in such proximity that the quencher quenches the fluorescent signal of the fluorophor, and (ii) the formation of the probe-target hybrid causes sufficient separation of the fluorophor and quencher to reduce quenching of the fluorescent signal of the fluorophor. Next, a first and second sample containing the probe-target hybrid are prepared. The probe-target hybrid of the first sample is then contacted with an RNase H enzyme (such as HIV reverse transcriptase) in an amount sufficient to selectively cleave the target nucleic acid and thereby release the intact probe. The probe-target hybrid of the second sample is also contacted with the RNase H enzyme in an amount sufficient to selectively cleave the target nucleic acid and thereby release the intact probe in the presence of a hydantoin derivative of the present invention. The release of the probe in each sample may then be detected by measuring the […] in the fluorescent signal of the fluorophor as compared to the signal of the probe-target hybrid. A comparison of the rate of the decrease in the fluorescent signal of the fluorophor in the two samples is made to determine whether there is a difference in the rate of the decrease in the two samples. […] This method is also useful to identify hydantoin derivatives of the present invention, wherein candidate hydantoin derivatives are screened for their ability to modulate RNase/HIV reverse transcriptase activity.

Structure (SMILES) | IC50 [1] [µM] | IC50 [2] [µM]
Cc1ccc(C2(C3CC3)NC(=O)NC2=O)cc1C (stereo not shown) [5-cyclopropyl-5-(3,4-dimethyl-phenyl)-2,4-imidazolidinedione] | > 122 | 41
CCC1(c2ccc(C)cc2)N=C(O)N=C1O (stereo not shown) [4-ethyl-4-(4-methylphenyl)-4H-imidazole-2,5-diol] | > 184 | 4
O=C1NC(=O)C(=Cc2cc(Br)cc(Br)c2O)N1 [5-(3,5-dibromo-2-hydroxy-benzylidene)-imidazolidine-2,4-dione] | > 111 | 13
CC1(c2ccccc2)NC(=O)N(C(=O)/C=C/c2ccc(F)c(C(F)(F)F)c2)C1=O (stereo not shown) [3-{(2E)-3-[4-fluoro-3-(trifluoromethyl)phenyl]prop-2-enoyl}-5-methyl-5-phenylimidazolidine-2,4-dione] | > 115 | 99
C=CN1C(=O)NC(C)(C)C1=O [5,5-dimethyl-3-vinyl-imidazolidine-2,4-dione] | > 107 | 50
C[C@]1(c2ccccc2)NC(=O)N(C(=O)/C=C/c2ccc(C(F)(F)F)cc2)C1=O [(5R)-5-methyl-5-phenyl-3-{(2E)-3-[4(trifluoromethyl)phenyl]prop-2-enoyl]imidizolidine-2,4-dione] | > 105 | 58
Cc1cc(C(=O)N2C(=O)NC(C)(c3ccccc3)C2=O)ccc1Cl (stereo not shown) [3-(4-chloro-3-methylbenzoyl)-5-methyl-5-phenylimidazolidine-2,4-dione] | – | 100
CC1(c2ccccc2)NC(=O)N(C(=O)/C=C/c2ccccc2)C1=O (stereo not shown) [5-methyl-5-phenyl-3-[(2E)-3-phenylprop-2-enoyl]imidazolidine-2,4-dione] | > 260 | 46
Cc1cn([C@H]2C[C@H](N=[N+]=[N-])[C@@H](CO)O2)c(=O)[nH]c1=O [AZT, reference compound] | < 0.2 | –
CC1(c2ccccc2)NC(=O)N(C(=O)/C=C/c2ccc(Cl)c(Cl)c2)C1=O (stereo not shown) [3-[(2E)-3-(3,4-dichlorophenyl)prop-2-enoyl]-5-methyl-5-phenylimidazolidine-2,4-dione] | > 107 | 52
CCC1(c2ccc(Br)cc2)NC(=O)NC1=O (stereo not shown) [5-(4-bromo-phenyl)-5-ethyl-imidazolidine-2,4-dione] | – | 64
O=C1NC(=O)C(=Cc2cc(Cl)cc(Cl)c2O)N1 [5-(3,5-Dichloro-2-hydroxy-benzylidene)-imidazolidine-2,4-dione] | > 102 | 57
CC(C)(C)OC(=O)N1C(=O)N(C(=O)OC(C)(C)C)C2(CCN(Cc3ccccc3)CC2)C1=O [di(tert-butyl) 8-benzyl-2,4-dioxo-1,3,8-triazaspiro[4.5}decane-1,3-dicarboxylate] | > 103 | 87
O=C(c1ccccc1)N1C(=O)N2CCc3ccccc3C2(c2ccccc2)C1=O (stereo not shown) [2-benzoyl-10b-phenyl-6,10b-dihydro-5H-imidazo[5,1-a]isoquinoline-1,3-dione] | – | 63
O=C1NC(c2ccccc2)(c2ccccc2)C(=O)N1CCCBr [3-(3-bromopropyl)-5,5-diphenyl-2,4-imidazolidinedione] | > 146 | 56
CC1(C)SC2C(NC(=O)C(NC(=O)CN3C(=O)NC(c4ccccc4)(c4ccccc4)C3=O)c3ccccc3)C(=O)N2C1C(=O)O (stereo not shown) [6-[{[{(2,5-dioso-4,4-diphenylimidazolidin-1-yl)acetyl]amino}(phenyl)acetyl]amino}-3,3-dimethyl-7-oxo-4-thia-1-azabicyclo[3.2.0]heptane-2-carboxylic acid] | > 62 | 4
CC[C@@]1(c2ccc(C)cc2)NC(=O)NC1=O [(5S)-5-ethyl-5-(4-methylphenyl)imidazolidine-2,4-dione] | > 180 | 2
Cc1ccc(C(=O)C(C)N2C(=O)NC(C)(c3ccccc3)C2=O)cc1Cl (stereo not shown) [3-[2-(3-chloro-4-methylphenyl)-1-methyl-2-oxoethyl]-5-methyl-5-phenyl-2,4-imidazolidinedione] | > 103 | 51
C[C@@]1(c2ccccc2)NC(=O)N(C(=O)/C=C/c2ccc(C(F)(F)F)cc2)C1=O [(5S)-5-methyl-5-phenyl-3-{(2E)-3-[4-(trifluoromethyl)phenyl]prop-2-enoyl}imidazolidine-2,4-dione] | > 100 | 98
